Values belong to the compound of their own block, whether it stands above or below them.
How the values were obtained:
Assay type in all cases: physicochemical
[1] = Encapsulation efficiency and drug loading of PEG-assist micelles (centrifugation, HPLC)
Experimental: In order to prepare drug-loaded micelles, PTX (at a weight ratio of 1:2 w/w PTX: PEG4kDa-b-PLA2.2kDa corresponding to target loading of ca. 33 wt. %) was added to the mixture prior to heating to 60° C. The amount of water when PTX was present in the formulation was adjusted to aim for 4 mg/mL PTX level. […] The hydration process was performed under different conditions including rapid hydration (vortexing after addition of water) or slow hydration (a two-step hydration protocol consisting of addition of half of the target water volume followed by mixing and then addition of the rest followed by gentle mixing at 50 rpm in a rotary mixer). Micelles with the target loadings of 10 and 20 wt. % as well as 1 mg/mL PTX target level were prepared after optimizing the process parameters and used for other experiments such as stability measurement, scalability study and freeze-drying. To prepare formulations with 1 mg/mL PTX target level at 10 or 20 wt. % target loading, 1 mg PTX together with 9 or 4 mg copolymer were mixed with 170 or 75 mg PEG, respectively, and heated to 60° C. to obtain a transparent mixture. The added amounts of PEG keep the block copolymer concentration at 5.0 wt. % in the mixture. The mixture was cooled down to 40° C., incubated for 2 h followed by hydration with 1 mL DI water at 40° C. to obtain drug-loaded polymeric micelles. The samples were cooled down to room temperature and analyzed.
To measure the encapsulation efficiency, unencapsulated drug was first removed by centrifugation at 10000 g for 10 min. Following centrifugation, 50 μl of supernatant for each sample was mixed with 50 μl DI water and 400 μl acetonitrile (ACN). High performance liquid chromatography (HPLC, Prominence, Shimadzu, Japan) equipped with an autosampler, a C18 column and a UV-Vis detector was employed to measure PTX content. PTX was detected at 228 nm absorption wavelength by injecting 10 μl sample through an 80/20 ACN/water v/v mixture as the mobile phase under the flow rate of 0.5 mL/min. […]

[2] = Particle size, PdI and zeta potential by dynamic light scattering; settings: PROTAC-loaded PEG-b-PLA micelles, PEG1000, hydrated at 40° C.
Experimental: Dynamic light scattering (DLS, nano ZS, Malvern) was used to measure particle size distribution and to investigate micelle formation. For particle size analysis, the measurements were carried out at 25° C. using water as dispersant.

[3] = Solubility of PTX in PEG-water mixtures; settings: all examined PEG molecular weights
Excerpt: To begin with, we measured the solubility of PTX in mixtures of water and PEG of different molecular weights as a function of water content. Hydrophobic drugs such as PTX are highly soluble in liquid PEG. Addition of water, however, if surpasses a critical point, will result in precipitation of PTX (see FIG. 4). This critical point is positioned near 50.0 wt. % water content (or water:PEG 1:1 w/w ratio) for all the examined molecular weights. In other words, presence of equal or larger amount of water in a PEG-water mixture prohibits PTX solubility. Considering the PEG-assist preparation procedure, the water content always well exceeds the critical value in the final product (ca. 85.0, 92.0 or 96.0 wt. % water content at 1 mg/mL PTX level for 10, 20 or 33 wt. % target loading, respectively). Therefore, PEG-water mixture cannot play any solubilization role for PTX in the proposed system, and the drug is expected to mainly reside in the PEG-b-PLA micelles' core.

[4] = Stability of micelle formulations at room temperature; settings: 20 wt. % target loading, 1 mg/mL, PEG1000, 40° C.
Experimental: We considered stability, applicability to other drugs and copolymers, scalability and long-term preservation as four more criteria to evaluate the PEG-assist method. The stability of PTX-loaded PEG-b-PLA micelles prepared at 20 wt. % target loading with 1 mg/mL target PTX level is shown in FIG. 9A. All the samples were prepared at saturation temperature i.e. 40° C. […] In other words, PTX remains soluble after 8 hours incubation at room temperature without any significant loss for any of the PEG molecular weights (p>0.05). […] We observed that all the samples were completely transparent without any visual precipitation within the 8 h time frame. […] The inherent incompatibility of PTX with the micelle core can be alleviated using acyl and ester prodrug strategies for physical loading purposes [Tam, Y. T., et al., “Poly (ethylene glycol)-block-poly (d, 1-lactic acid) micelles containing oligo (lactic acid) 8-paclitaxel prodrug: In Vivo conversion and antitumor efficacy” J. Control. Rel., 2019. 298:186-193; Tam, Y. T., J. Gao, and G. S. Kwon, “Oligo (lactic acid) n-paclitaxel prodrugs for poly (ethylene glycol)-block-poly (lactic acid) micelles: loading, release, and backbiting conversion for anticancer activity” J. Am. […]
The samples in Example 16, were monitored for stability after reconstitution. The particle size and PdI was measured at different time points (1, 2 and 7 days).

[5] = PROTAC-loaded PEG-b-PLA micelles, PEG1000, hydrated at 40° C.

Structure (SMILES): COc1cc2ncnc(Nc3ccc(F)c(Cl)c3)c2cc1OCCCCCOCCOCCC(=O)N[C@H](C(=O)N1C[C@H](O)C[C@H]1C(=O)NCc1ccc(-c2scnc2C)cc1)C(C)(C)C [Gefitinib-based PROTAC3]
- % Drug Loading [1, 5]: 17.2%
- % Encapsulation Efficiency [1, 5]: 83.0%
- PdI [2]: 0.208
- Size [2]: 34.1 ± 6.5 nm
- Zeta potential [2]: 3.39 ± 14.2 mV

Structure (SMILES): CC(=O)O[C@H]1C(=O)[C@@]2(C)[C@H]([C@H](OC(=O)c3ccccc3)[C@]3(O)C[C@H](OC(=O)[C@H](O)[C@@H](NC(=O)c4ccccc4)c4ccccc4)C(C)=C1C3(C)C)[C@]1(OC(C)=O)CO[C@@H]1C[C@@H]2O [PTX, Paclitaxel]
- critical water content of PEG-water mixture above which PTX precipitates [3]: ~50.0 wt. %

- encapsulation efficiency ([1]; 17AAG, 20 wt. % target loading, 1 mg/mL, PEG1000, 40° C.): 80.2±2.1%
- time stable at room temperature [4]: at least 24 h
Structure (SMILES): C=CCNC1=C2C[C@@H](C)C[C@H](OC)[C@H](O)[C@@H](C)/C=C(\C)[C@H](OC(N)=O)[C@@H](OC)/C=C\C=C(/C)C(=O)NC(=CC1=O)C2=O [Sample 17AAG]

— US20230293433A1, “METHOD OF MANUFACTURING MICELLES FOR DRUG DELIVERY” (Wisconsin Alumni Research Foundation, priority 2022, published 2023)
